Experimental data published in paper PMC6677322, “Dafachronic acid promotes larval development in Haemonchus contortus by modulating dauer signalling and lipid metabolism” (PLoS Pathogens, 2019).

Key:
Ac-DAF-12 = molecular target: T1, Ac-DAF-12 (Ancylostoma caninum, UniProt A0A368G7M4); experiment: luciferase reporter assay in HEK293 cells; type: cell-based
T1 construct: gene ANCCAN_15412

Hc-DAF-12 = Hc-DAF-12 (Haemonchus contortus, UniProt A0A650FMZ7); experiment: luciferase reporter assay in HEK293 cells transfected with Hc-DAF-12; type: cell-based
Chain of Hc-DAF-12 (A0A650FMZ7 entry or part of it): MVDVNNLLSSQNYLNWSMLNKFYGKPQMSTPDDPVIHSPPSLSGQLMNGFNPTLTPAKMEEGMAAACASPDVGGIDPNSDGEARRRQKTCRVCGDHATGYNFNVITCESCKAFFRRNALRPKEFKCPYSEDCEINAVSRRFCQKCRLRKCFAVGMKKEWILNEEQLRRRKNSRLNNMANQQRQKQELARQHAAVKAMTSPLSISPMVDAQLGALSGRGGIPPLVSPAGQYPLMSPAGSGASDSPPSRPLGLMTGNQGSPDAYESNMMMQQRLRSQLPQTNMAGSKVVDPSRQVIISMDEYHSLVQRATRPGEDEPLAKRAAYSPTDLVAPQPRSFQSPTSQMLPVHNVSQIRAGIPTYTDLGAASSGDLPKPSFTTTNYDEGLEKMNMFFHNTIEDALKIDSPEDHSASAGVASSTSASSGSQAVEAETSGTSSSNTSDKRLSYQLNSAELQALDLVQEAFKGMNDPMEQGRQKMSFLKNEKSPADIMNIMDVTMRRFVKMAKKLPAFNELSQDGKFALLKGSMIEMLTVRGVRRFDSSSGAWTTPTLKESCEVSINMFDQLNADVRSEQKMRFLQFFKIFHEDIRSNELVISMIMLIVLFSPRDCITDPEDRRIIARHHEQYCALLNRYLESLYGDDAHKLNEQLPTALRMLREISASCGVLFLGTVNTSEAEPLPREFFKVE

T1 sequence (A0A368G7M4 entry or part of it): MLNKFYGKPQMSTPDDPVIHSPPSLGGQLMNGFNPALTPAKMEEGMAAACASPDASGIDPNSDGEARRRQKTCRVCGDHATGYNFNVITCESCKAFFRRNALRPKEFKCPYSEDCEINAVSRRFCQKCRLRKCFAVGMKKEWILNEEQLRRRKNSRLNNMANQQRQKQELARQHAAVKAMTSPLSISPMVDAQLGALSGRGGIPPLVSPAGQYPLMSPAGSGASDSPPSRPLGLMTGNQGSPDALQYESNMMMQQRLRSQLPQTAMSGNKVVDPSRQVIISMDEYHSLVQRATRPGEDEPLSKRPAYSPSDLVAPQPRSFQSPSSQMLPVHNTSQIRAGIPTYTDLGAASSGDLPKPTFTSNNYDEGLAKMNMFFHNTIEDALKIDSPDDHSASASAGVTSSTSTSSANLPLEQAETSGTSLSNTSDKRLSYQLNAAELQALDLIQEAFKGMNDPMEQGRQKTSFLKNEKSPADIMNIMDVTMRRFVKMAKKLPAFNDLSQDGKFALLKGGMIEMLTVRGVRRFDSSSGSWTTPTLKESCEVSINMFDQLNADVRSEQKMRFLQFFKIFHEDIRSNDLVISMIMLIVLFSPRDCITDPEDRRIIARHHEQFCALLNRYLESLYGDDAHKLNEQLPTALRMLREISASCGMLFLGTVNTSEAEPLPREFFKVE

C[C@H](CCC[C@H](C)C(=O)O)[C@H]1CC[C@H]2C3=CC[C@H]4CC(=O)CC[C@]4(C)[C@H]3CC[C@]12C [(25S)-Δ7-DA]
EC50 (Ac-DAF-12): 0.0128 µM
EC50 (Hc-DAF-12): 0.0125 µM
